We go through 14 compounds from patent publication US4226883A, “Carbamate derivatives and method for manufacture thereof” (priority 1974, dated 1980).

Read-outs that look alike come from different tables or passages of the source.

In data set [1] the test system is resistant green rice leafhoppers (R). The settings on record: ratio of the resistant strain to the susceptible strain (LD50); 1440 min. As to the method:
(1) A 20-mg portion of a given test compound was weighed out and dissolved in 10 ml of acetone. The resultant solution was diluted at proper times with acetone.
(2) With a micro-syringe, the acetone solution of the test compound was topically applied to the thoracic region of female green rice leafhoppers at a fixed dose of 0.2 μl per head.
(3) The female green rice leafhoppers thus treated were placed in a plastic cup prepared in advance (measuring 7 cm in diameter and 3.5 cm in depth and containing rice seeds) and kept at a constant temperature of 26±1° C. After 24 hours' standing, the dead insects were counted.
In the case of a mixed insecticide, the LD50 was shown as a total dosage.

In data set [2] the target is cholinesterase (ChE), susceptible strain. In words: Inhibition of cholinesterase (acetylthiocholine method), susceptible strain enzyme. Type of data set: biochemical, green rice leafhopper, Nephotettix cincticeps. The settings on record: 50% inhibition concentration, 30° C. 30 min with inhibitor, read-out: Inhibition of Cholinesterase I50 (M) S. As to the method:
The activity of ChE was performed by the acethyethiocholine method [Ellman (1961), Biochemical Pharmacology 7: 88-95].
[…]. After centrifuged (30,000 g, 10 min.), the supernatant was used as the source of ChE.
(§1) (2) Inhibition: 1.0 ml of enzyme solution was incubated with 0.1 ml of inhibitor which diluted with acetone at 30° C. for 30 min. ((2) solution).
(3) Determination of ChE activity: 1.0 ml of acetylthiochline (3.5/2×10^-2 M), 1.0 ml of DTNB (5,5'-dithiobis-2-nitrobenzoic acid, 2.5×10^-4 M) and 4.0 ml of phosphate buffer (1/15 M, pH 7.4) were added to the (2) solution and incubated at 30° C. for 10 min. After incubation, […] of eserine (2×10^-3 M) was added in order to stop the enzyme reaction and the optical density of the yellow solution was measured at 412 mμ on the spectrophotometer.

The test system of data set [3] is cholinesterase (ChE), resistant strain. Type of data set: biochemical, green rice leafhopper, Nephotettix cincticeps. To be noted: for Inhibition of Cholinesterase R/S (resistant ratio): ratio of the resistant strain to the susceptible strain (I50), 30 min; for IC50: resistant strain, 50% inhibition concentration, 30° C. 30 min with inhibitor, read-out: Inhibition of Cholinesterase I50 (M) R. How it is done: After centrifuged (30,000 g, 10 min.), the supernatant was used as the source of ChE.
as §1
(3) Determination of ChE activity: 1.0 ml of acetylthiochline (3.5/2×10^-2 M), 1.0 ml of DTNB (5,5'-dithiobis-2-nitrobenzoic acid, 2.5×10^-4 M) and 4.0 ml of phosphate buffer (1/15 M, pH 7.4) were added to the (2) solution and incubated at 30° C. for 10 min.

In data set [4] the test system is green rice leafhoppers of the strain RN. Description: Test Example 3: dust spray test (20 mesh metal gauze cylinder). It counts as in vivo, Nephotettix cincticeps. To be noted: for Effect of individual compound (RN), death ratio (%) (Table 9): dust, compound alone, RN strain; for death ratio (%), mixture with Compound No. 1: dust mixed with 1; for death ratio (%), mixture with Compound No. 6*: dust mixed with 6*; for death ratio (%), mixture with Compound No. 24*: dust mixed with 24*; for death ratio (%), mixture with Compound No. 35*: dust mixed with 35*; for death ratio (%), mixture with Compound No. 40*: dust mixed with 40*; for death ratio (%), mixture with Compound No. 49*: dust mixed with 49*; for death ratio (%), mixture with Compound No. 81*: dust mixed with 81*; for death ratio (%), mixture with Compound No. 118*: dust mixed with 118*; for death ratio (%), mixture with Carbofuran: dust mixed with Carbofuran. How it is done: The insecticides in the form of dust were tested for insecticidal activity.
(§2) The test for insecticidal activity was performed by the following procedure. […] The dust of a test compound (pulverized by means of a shaking pulverizer made by Taira Kosakusho, Ltd.) was applied onto the tube contents at a prescribed rate by spraying from outside the metal gauze by means of a bell-jar duster. The dust of the test compound was prepared uniformly mixing 2 parts of the dust of the individual compound or 1 part each of the dusts of the mixture components (total 2 parts) and 98 parts of a carrier obtained by mixing talc and clay in equal volumes.

Data set [5] shares this test system. In words: Test Example 4: dust test with 35 mesh metal gauze. Type of data set: in vivo, Nephotettix cincticeps. How it is done: as §2

For `CCNC(=O)Oc1ccccc1C(C)C` [Compound 2, 2-isopropylpheny-N-ethylcarbamate], in data set [1], the “Insecticidal Activity R/S (resistant ratio)” value turned out to be 2.1. In data set [2], the IC50 amounted to 3.2e-05 M. For the same compound, in data set [3], the “Inhibition of Cholinesterase R/S (resistant ratio)” value (from here on “Inhibition … (resistant ratio)”) is 1.6 and the IC50 stood at 5.2e-05 M.
Consider `CCCCNC(=O)Oc1ccccc1C(C)CC` (centres unmarked) [Compound 9], for which the “Insecticidal Activity R/S (resistant ratio)” value in data set [1] is given as under 1.0. The IC50 in data set [2] was over 0.001 M; in data set [3], 0.00014 M. The “Inhibition … (resistant ratio)” value in data set [3] was under 0.1.
As to `CCNC(=O)Oc1cccc(C(C)C)c1` [Compound 12], in data set [1], the “Insecticidal Activity R/S (resistant ratio)” value is reported as 3.7. Also, the IC50 in data set [2] came to 3.7e-05 M. Also, in data set [3], the “Inhibition … (resistant ratio)” value worked out at 0.5 and the IC50 turned out to be 1.7e-05 M.
The matching figures for `CCNC(=O)Oc1cccc(C(C)CC)c1` (centres unmarked) [Compound 16]: 3.7, 6.5e-06 M, 0.9 and 5.6e-06 M.
The matching figures for `CCCCNC(=O)Oc1cccc(C(C)CC)c1` (centres unmarked) [Compound 18]: 0.9, 5e-05 M, 0.09 and 4.3e-06 M.
The matching figures for `CCCC(C)c1cccc(OC(=O)NCC)c1` (centres unmarked) [Compound 20]: 1.5, 3.4e-06 M, 1.2 and 4.1e-06 M.
As for `CCCCNC(=O)Oc1cccc(C(C)CCC)c1` (centres unmarked) [Compound 22], in data set [1], the “Insecticidal Activity R/S (resistant ratio)” value is 0.9. In data set [2], the IC50 worked out at 5.1e-05 M. Besides, in data set [3], the “Inhibition … (resistant ratio)” value is 0.1 and the IC50 worked out at 6.3e-06 M.
The matching figures for `CCc1cccc(OC(=O)NC)c1` [Compound 29, reference compound]: 14.9, 2.9e-06 M, 41.4 and 0.00012 M.
`CCNC(=O)Oc1cccc(CC)c1` [Compound 30]: the “Insecticidal Activity R/S (resistant ratio)” value in data set [1] is given as 1.7. For the same compound, in data set [2], the IC50 is 0.0002 M. In data set [3], the “Inhibition … (resistant ratio)” value is 0.8 and the IC50 came out at 0.00016 M.
The matching figures for `C=CCNC(=O)Oc1cccc(C(C)(C)C)c1` [Compound 34]: 1.1, 2.6e-05 M, 0.3 and 8.9e-06 M.
Regarding `CCNC(=O)Oc1cc(C)cc(C)c1` [Compound 41, 3.5-dimethylphenyl-N-ethylcarbamate], the “Insecticidal Activity R/S (resistant ratio)” value in data set [1] is 2.0. Also, the IC50 in data set [2] is 0.00011 M. In addition, in data set [3], the “Inhibition … (resistant ratio)” value stood at 0.7 and the IC50 worked out at 7.9e-05 M. Moreover, the mortality at 100 mg/cylinder in data set [4] (2% dust, 100 mg, 24 hr, read-out: Mortality (%) after 24 hr., 100 mg Spray (Table 7)) came out at 50%. In addition, the mortality at 250 mg/cylinder in data set [4] (2% dust, 250 mg, 24 hr, read-out: Mortality (%) after 24 hr., 250 mg Spray (Table 7)) was 70%.
Consider `CNC(=O)Oc1cccc2ccccc12` [Compound 49, 1-naphthyl-N-methylcarbamate], for which the mortality at 100 mg is 0% in data set [5] (1 h, read-out: Death ratio (%) 1 hr., Dusting amount 100 mg); 0% in data set [5] (2 h, read-out: Death ratio (%) 2 hrs., Dusting amount 100 mg); 0% in data set [5] (4 h, read-out: Death ratio (%) 4 hrs., Dusting amount 100 mg); 0% in data set [5] (16 h, read-out: Death ratio (%) 16 hrs., Dusting amount 100 mg); 0% in data set [5] (24 h, read-out: Death ratio (%) 24 hrs., Dusting amount 100 mg). Besides, the mortality at 250 mg in data set [5] (1 h, read-out: Death ratio (%) 1 hr., Dusting amount 250 mg) was 0%; in data set [5] (2 h, read-out: Death ratio (%) 2 hrs., Dusting amount 250 mg), 0%; in data set [5] (4 h, read-out: Death ratio (%) 4 hrs., Dusting amount 250 mg), 0%; in data set [5] (16 h, read-out: Death ratio (%) 16 hrs., Dusting amount 250 mg) it was 0%; in data set [5] (24 h, read-out: Death ratio (%) 24 hrs., Dusting amount 250 mg), 0%. Also, the mortality at 500 mg in data set [5] (1 h, read-out: Death ratio (%) 1 hr., Dusting amount 500 mg) worked out at 0%; in data set [5] (2 h, read-out: Death ratio (%) 2 hrs., Dusting amount 500 mg), 0%; in data set [5] (4 h, read-out: Death ratio (%) 4 hrs., Dusting amount 500 mg), 0%; in data set [5] (16 h, read-out: Death ratio (%) 16 hrs., Dusting amount 500 mg), 0%; in data set [5] (24 h, read-out: Death ratio (%) 24 hrs., Dusting amount 500 mg) it was 0%. Also, the “Effect of individual compound (RN), death ratio (%) (Table 9)” value (from here on “Effect … death ratio (%) (Table 9)”) in data set [4] was determined as 0%.
As for `CCOc1ccccc1OC(=O)NC` [Compound 79, reference compound], the IC50 in data set [2] was 2.5e-05 M. For the same compound, in data set [3], the “Inhibition … (resistant ratio)” value worked out at 12.0 and the IC50 was determined as 0.0003 M. In data set [4] (Table 9, RN), the “death ratio (%), mixture with Compound No. 1” value turned out to be 0%; the “death ratio (%), mixture with Compound No. 6*” value was determined as 0%; the “death ratio (%), mixture with Compound No. 24*” value is on record as 0%; the “death ratio (%), mixture with Compound No. 35*” value amounted to 0%. Besides, in data set [4] (Table 9, RN), the “death ratio (%), mixture with Compound No. 40*” value came to 10.0%; the “death ratio (%), mixture with Compound No. 49*” value is 0%; the “death ratio (%), mixture with Compound No. 81*” value stood at 5.0%; the “death ratio (%), mixture with Compound No. 118*” value was 25.0%. The “death ratio (%), mixture with Carbofuran” value in data set [4] (Table 9, RN) came to 40.0%. Besides, the “Effect … death ratio (%) (Table 9)” value in data set [4] is given as 0%.
In the case of `CCOc1cccc(OC(=O)NC)c1` [Compound 92, reference compound], in data set [2], the IC50 turned out to be 1.7e-05 M. In data set [3], the “Inhibition … (resistant ratio)” value is reported as 17.6 and the IC50 was found to be 0.0003 M. In data set [4] (Table 9, RN), the “death ratio (%), mixture with Compound No. 1” value was found to be 0%; the “death ratio (%), mixture with Compound No. 6*” value amounted to 0%; the “death ratio (%), mixture with Compound No. 24*” value is listed as 0%; the “death ratio (%), mixture with Compound No. 35*” value is recorded as 10.0%. For the same compound, in data set [4] (Table 9, RN), the “death ratio (%), mixture with Compound No. 40*” value is 5.0%; the “death ratio (%), mixture with Compound No. 49*” value amounted to 0%; the “death ratio (%), mixture with Compound No. 81*” value is listed as 0%; the “death ratio (%), mixture with Compound No. 118*” value is reported as 25.0%. The “death ratio (%), mixture with Carbofuran” value in data set [4] (Table 9, RN) stood at 20.0%. In addition, the “death ratio (%), mixture with Methomyl” value in data set [4] (Table 9, dust mixed with Methomyl, RN) was determined as 40.0%. The “Effect … death ratio (%) (Table 9)” value in data set [4] is 0%.
